Here are results for two molecules from patent US20090062255A1, “TUMOR-TARGETING EVALUATION METHODOLOGY AND COMPOUNDS RELATED THERETO” (THALLION PHARMACEUTICALS INC., priority 2007, published 2009).

For series [1], the target named is T1, PBR (Rattus norvegicus, UniProt P16257).
T1 construct: from tissue; host or cells: orthotopic rat C6 glioma in Sprague-Dawley rats, in vivo
Put plainly: In vivo PBR occupancy by PET (11C-(R)-PK11195) following IV bolus and CIV infusion. The method, then: (R)-1-(2-chlorophenyl)-N-methyl-N-(1-methyl-propyl)-3-isoquinoline carboxamide (R N-desmethyl PK11195), the precursor for the radioisotope-labeled (R) —PK11195, was purchased from ABX (Radeburg, Germany). The synthesis of ^11C-(R)-PK11195 was accomplished by a modification of the method of Camsonne et al. (J. Label. Compd. Radiopharm., 21: 985-991,1984). Briefly, ^11C-methyl iodide (^11C—CH3I) was transferred by a stream of nitrogen gas at a flow rate of 10 ml/min into a reaction medium containing 1 mg or R—N-desmethyl PK11195 previously dissolved in 0.5 mL of dimethylsulfoxide (DMSO) and about 20 mg of sodium hydroxide. The reaction was initiated at room temperature, with a bubbling of the ^11C—CH3I being continued over a 5 minute period. After bubbling was complete, the reaction mixture was left standing for 5 minutes. Purification was performed by high pressure liquid chromatography (HPLC) using a reverse-phase C18 column and a methanol:ammonium formate (20 mM) (80:20) mixture and a mobile phase at a flow rate of 3 mL/min. ^11C—(R) —PK11195 was eluted at 11 minutes and obtained with a specific radioactivity of […].
The above study was repeated but his time ECO-4601 was administered as a bolus push followed by a continuous intra-venous (CIV) infusion of ECO-4601 obtained in the steady-state condition through the second 11C-PK11195 PET scan. […]
To determine a mean tumor binding potential (B.P.) (baseline) and the mean B.P., the simplified reference tissue method was utilized comparing the ratio of tumor to normal brain. As a result, mean tumor binding potential (B.P.) (baseline) was calculated to be 2.19±0.16 (mean±SEM) and the mean B.P. (ECO-4601) was calculated to be 0.14±0.13 (mean±SEM).

A short description of series [2]: Plasma and tissue drug levels after IV bolus and CIV infusion, rat C6 orthotopic brain tumors. Format: in vivo. Here is the method:
14 days post-tumor implantation, rats received a bolus IV administration of compound 1 (30 mg/kg; 1.5 mL at 0.5 mL per min) followed by continuous IV infusion (5 mg/kg/hour; 0.7 mL/hour) over 3 hours. The animals were then sacrificed by anesthetic overdose and blood was collected by heart puncture. Brain, tumor and liver were snap-frozen in liquid nitrogen and stored at −80° C. until analysis. Blood samples was collected into K2-EDTA tubes and kept on ice for a maximum of 30 min. Samples were then centrifuged at 4° C. and 1500 g (RCF). A volume of 225 μL of rat plasma was added to clean tubes containing 25 μL of aqueous 4% w/v L-ascorbic acid and samples were mixed and stored at −80° C. until analysis.
Binding potential (B.P.) data and Compound 1 plasma levels and tissue levels for each of the seven rats included in the study are presented in Table 23 below and summarized in FIG. 7.

In series [3] the target is T2, human c-RAF (Homo sapiens, UniProt P04049).
T2 construct: purchased Upstate (Kinase Profiler Service; Dundee, UK)
Briefly: Upstate Kinase Profiler, c-RAF. Format: biochemical. Here is the method: (§1) Unlike current Ras signalling pathway inhibitors, ECO-4601 is not a direct kinase inhibitor. This was documented by evaluating the effect of ECO-4601 on human EGFR, c-RAF, MEK1, MAPK1 (ERK1) and MAPK2 (ERK2) kinase-activity (Upstate Kinase Profiler™ Service; Dundee, UK). ECO-4601 was tested at 0.5 μM and 5 μM in a final volume of 25 μL according to standard protocols developed by Upstate Ltd. Briefly, purified recombinant human enzymes were incubated with 25 mM Tris pH 7.5 containing EGTA, a specific substrate and γ-^32P-ATP. The reaction was initiated with MgATP mix and incubated for 40 minutes at RT. The reaction was stopped by the addition of 5 μL of a 3% phosphoric acid solution; aliquots were spotted on filters and counted. Detailed procedures are available on the Millipore Upstate website.

The target in series [4] is T3, human MAPK1 (ERK1) (Homo sapiens, UniProt P27361).
T3 construct: purchased Upstate (Kinase Profiler Service; Dundee, UK)
Briefly: Upstate Kinase Profiler, MAPK1 (ERK1). Format: biochemical. The method, then:
as §1

Series [5] has as its system GTP-bound Ras. Put plainly: Ras activation pull-down assay (GST-Raf-RBD) in MCF-7 cells. Type of series: cell-based, human. The conditions noted are these: 6 h treatment, EGF 5 min. The method, then:
Following EGF induction, Ras is activated by a nucleotide exchange reaction that removes GDP and replaces it with GTP. Physiological levels of total cellular GTP-bound Ras can be detected with pull-down assays. MCF-7 cells were treated with increasing concentrations of ECO-4601 for 6 h and the Ras-MAPK signalling pathway was then induced with EGF. After a 5 min induction period, cells were lysed and incubated with a recombinant fusion protein that contains the isolated Ras Binding Domain of c-Raf-1 fused the gluthathione-S-transferese (GST; designated GST-Raf-RBD). The presence of Ras in the GST-Raf-RBD protein complex is resolved by western blotting. As expected, after EGF induction, an increase of Ras-GTP was observed.

For series [6], the system named is human uterine sarcoma MES-SA. Briefly: Growth inhibitory MTT assay, MES-SA. The conditions noted are these: 72 hours, treated over control. Format: cell-based. The method, then:
Growth inhibitory activity of ECO-4601 (Compound 1) and other dibenzodiazepinone analogs was evaluated on a panel of 4 human tumor cell lines: the human uterine sarcoma MES-SA and its doxorubicin-resistant P-glycoprotein over-expressing variant, MES-SA/DX5 as well as non-aggressive and highly aggressive human breast cell lines, MCF-7 and MDA-MB-231, respectively. These four cell lines were obtained from the American Type Culture Collection (Manassas, Va.) and cultured in RPMI plus 10% fetal bovine serum (FBS) and maintained at 37° C. with 5% CO2.
Exponentially growing cells (5,000 cells per well time; cell number determined with a hemocytometer) were seeded in 96-well flat-bottom plates and allowed to grow overnight. Cells were then incubated for 72 hours with three different concentrations of ECO-4601 or analogs: 30,10, and 3 μM. The in vitro growth inhibitory activity was determined by a commercial MTT assay. All measurements were done in quadruplicate and each experiment was performed 2-3 times. The lower the value, the more cytotoxic is the compound.

In series [7] the test system is HT-29, SF268, MDA-MB-231 and PC-3 cell lines. Put plainly: In vitro cytotoxic activity against four cell lines (overall statement). Type of series: cell-based. The settings on record: second test. An excerpt: Procedures used for each series of tests are described below.
Compound 2 has an unexpected increase in cytotoxic activity compared to parent Compound 1. […] Cytotoxic activity (GI50) of Compound 2 for the other three strains was outside the expected range of concentrations used in the first tests.

The mark [8] stands for this setting: individual rats, IV bolus 30 mg/kg then CIV 5 mg/kg/hour, listed as ECO-4601.
The mark [9] stands for this setting: individual rats, IV bolus 30 mg/kg then CIV 5 mg/kg/hour over 3 hours, listed as ECO-4601.

Molecules are shown by their SMILES. “And” between values parts separate entries of the source, which are not always exact repeats. Equal entries are not always repeated. Where two headings read alike, the source gives them in different places.

T3 sequence (P27361 whole entry): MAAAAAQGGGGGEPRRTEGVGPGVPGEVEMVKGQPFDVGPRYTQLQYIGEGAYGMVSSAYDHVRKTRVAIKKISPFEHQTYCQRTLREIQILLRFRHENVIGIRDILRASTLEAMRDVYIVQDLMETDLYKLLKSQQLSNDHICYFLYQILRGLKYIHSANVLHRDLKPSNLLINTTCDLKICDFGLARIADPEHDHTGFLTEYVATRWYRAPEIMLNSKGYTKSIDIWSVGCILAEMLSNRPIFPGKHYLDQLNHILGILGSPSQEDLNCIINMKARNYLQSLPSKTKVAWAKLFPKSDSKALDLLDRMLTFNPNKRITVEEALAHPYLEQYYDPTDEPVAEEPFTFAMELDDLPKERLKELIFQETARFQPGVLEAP
T2 sequence (P04049 whole entry): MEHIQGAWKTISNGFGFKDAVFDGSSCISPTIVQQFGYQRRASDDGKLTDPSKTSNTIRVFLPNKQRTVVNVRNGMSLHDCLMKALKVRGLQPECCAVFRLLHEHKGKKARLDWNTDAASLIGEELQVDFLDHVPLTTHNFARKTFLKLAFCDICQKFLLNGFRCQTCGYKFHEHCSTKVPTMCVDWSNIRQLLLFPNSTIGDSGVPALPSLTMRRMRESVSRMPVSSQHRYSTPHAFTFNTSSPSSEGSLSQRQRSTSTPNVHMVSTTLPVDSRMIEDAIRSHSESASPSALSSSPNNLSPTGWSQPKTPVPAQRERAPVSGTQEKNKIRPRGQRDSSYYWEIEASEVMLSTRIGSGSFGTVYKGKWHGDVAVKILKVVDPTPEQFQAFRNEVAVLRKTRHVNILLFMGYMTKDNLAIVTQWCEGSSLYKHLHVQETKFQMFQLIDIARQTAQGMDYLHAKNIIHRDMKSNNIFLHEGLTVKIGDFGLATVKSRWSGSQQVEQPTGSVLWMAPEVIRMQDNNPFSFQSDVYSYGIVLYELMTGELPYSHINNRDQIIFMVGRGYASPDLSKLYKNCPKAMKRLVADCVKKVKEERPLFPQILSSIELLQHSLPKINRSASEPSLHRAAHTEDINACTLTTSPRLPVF

As for `CC(C)=CCC/C(C)=C/CC/C(C)=C/CN1C(=O)c2cccc(O)c2Nc2c(O)cc(O)cc21` [Compound 1, 10-farnesyl-4,6,8-trihydroxy-5,10-dihydrodibenzo[b,e][1,4]diazepin-11-one], in series [1] (CIV infusion, mean±SEM, n=6), the “mean tumor binding potential (B.P.) after compound” value worked out at 0.14±0.13. Moreover, in series [1] (CIV infusion, n=6), the “reduction of PBR occupancy for 11C-(R)-PK11195 binding, average” value is 91.67%. For the same molecule, in series [1] (setting [8]), the “% PBR occupancy” value was 100% and 30% and 50%; the “Binding Potential (ECO-4601)” value is 0 (5×) and 1.81 and 0.84. For the same molecule, the “tumor compared to liver” value in series [2] (FIG. 7) was determined as 7 fold. Also, in series [2] (setting [9]), the “Brain Drug Level” value was 527 ng/g and 692 ng/g and 823 ng/g and 1265 ng/g and 941 ng/g and 503 ng/g and 596 ng/g; the “Liver Drug Level” value was 11.2 µg/g and 6.91 µg/g and 53.1 µg/g and 61.0 µg/g and 14.2 µg/g and 3.31 µg/g and 2.29 µg/g; the “Plasma Drug Level” value was 16000 ng/mL and 12000 ng/mL and 22000 ng/mL and 32000 ng/mL and 11500 ng/mL and 4200 ng/mL and 4100 ng/mL; the “Tumor Drug Level” value is 234 µg/g and 8.46 µg/g and 182 µg/g and 273 µg/g and 242 µg/g and 8.98 µg/g and 119 µg/g. Moreover, in series [2] (rat, liver, intravenous, FIG. 7, read-out: liver level (mean)), the concentration at 3 h was 24800 ng/g. Moreover, the concentration at 3 h in series [2] (rat, plasma, intravenous, FIG. 7, read-out: plasma level (mean)) is 16200 ng/g. Besides, in series [2] (rat, tumor / plasma, intravenous, FIG. 7, read-out: tumor compared to plasma), the Kp at 3 h is 11. The concentration at 3 h in series [2] (rat, tumor, intravenous, FIG. 7, read-out: accumulation in the tumor (mean level)) was 176 µg/mL. The “direct inhibition of c-Raf kinase activity (in words)” value in series [3] (0.5 μM and 5 μM) is “does not directly inhibit”. Moreover, in series [3] (c-Raf, 0.5 μM, % of enzyme activity over positive control, read-out: Kinase Activity (%) ± SD), the activity at 0.5 µM turned out to be 114 ± 12%. In addition, in series [3] (c-Raf, 5 μM, % of enzyme activity over positive control, read-out: Kinase Activity (%) ± SD), the activity at 5 µM stood at 94 ± 2%. In series [4] (0.5 μM and 5 μM), the “direct inhibition of ERK1 kinase activity (in words)” value is “does not directly inhibit”. Also, in series [4] (MAPK1 (ERK1), 0.5 μM, % of enzyme activity over positive control, read-out: Kinase Activity (%) ± SD), the activity at 0.5 µM is 97 ± 2%. The activity at 5 µM in series [4] (MAPK1 (ERK1), 5 μM, % of enzyme activity over positive control, read-out: Kinase Activity (%) ± SD) was found to be 73 ± 3%. The “effect on EGF-induced Ras activation (Ras-GTP)” value in series [5] is given as “prevented EGF from activating Ras”. In addition, the “% T/C at 10 μM” value in series [6] came out at 78%.
On to `CC(C)=CCC/C(C)=C/CC/C(C)=C/CN1C(=O)c2cccc(O)c2N(C)c2c(O)cc(O)cc21` [Compound 2, 10-farnesyl-4,6,8-trihydroxy-5-methyl-5,10-dihydro-dibenzo[b,e][1,4]diazepin-11-one], for which the “increase in potency compared to Compound 1” value in series [7] was found to be 100 fold.
